One may read the EC50 as the concentration that produces a half-maximal response.

Assay [1] has as its system endogenous NAMPT in U2OS cells. Briefly: Cellular NAD+ modulation assay (NAD/NADH-Glo, U2OS cells). The note with it: Homo sapiens; for maximal fold induction: read-out: Cellular Emax. Format: cell-based. The essentials: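 Endogenous NAMPT stimulation in U2OS cells treated with compound dilution series for 24 h at 37 °C. Cells lysed with DTAB base, acid-treated 15 min at 60 °C, neutralized, NAD+ read by NAD/NADH-Glo luminescence after 40 min at room temperature. EC50 and Emax (fold over DMSO) derived.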

In assay [2] the target is T1, human enzyme NAMPT (full length) (Homo sapiens, UniProt P43490).
T1 construct: human enzyme NAMPT (full length)
In words: NMN fluorescence biochemical assay (stimulation of NMN synthesis by NAMPT). The note with it: for EC50: concentration giving half-maximal activation, read-out: Enzymatic EC50; for Enzymatic Emax: fold change of maximal activation compared to DMSO. The essentials:
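Full-length human NAMPT (100 nM) was preincubated 15 min at 37 °C with compound in 50 mM Tris-HCl pH 7.5, 10 mM MgCl2, 2 mM DTT, then reacted 1 h at 37 °C with 50 μM NAM, 100 μM PRPP, 4 mM ATP (stated solution concentrations). NMN was derivatised with acetophenone/KOH then formic acid and read at Ex/Em 382/445 nm; EC50 and Emax (fold over DMSO) reported.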

[3] abbreviates: 24 hours incubation, cellular NAD+.
The mark [4] stands for this setting: NMN fluorescence assay, purified human NAMPT 100 nM.
Setting [5] is: 24 hours incubation with compound.
Setting [6] is: NMN synthesis by purified human NAMPT (100 nM).

Read-outs that look alike come from different tables or passages of the source.

T1 sequence (P43490 whole entry): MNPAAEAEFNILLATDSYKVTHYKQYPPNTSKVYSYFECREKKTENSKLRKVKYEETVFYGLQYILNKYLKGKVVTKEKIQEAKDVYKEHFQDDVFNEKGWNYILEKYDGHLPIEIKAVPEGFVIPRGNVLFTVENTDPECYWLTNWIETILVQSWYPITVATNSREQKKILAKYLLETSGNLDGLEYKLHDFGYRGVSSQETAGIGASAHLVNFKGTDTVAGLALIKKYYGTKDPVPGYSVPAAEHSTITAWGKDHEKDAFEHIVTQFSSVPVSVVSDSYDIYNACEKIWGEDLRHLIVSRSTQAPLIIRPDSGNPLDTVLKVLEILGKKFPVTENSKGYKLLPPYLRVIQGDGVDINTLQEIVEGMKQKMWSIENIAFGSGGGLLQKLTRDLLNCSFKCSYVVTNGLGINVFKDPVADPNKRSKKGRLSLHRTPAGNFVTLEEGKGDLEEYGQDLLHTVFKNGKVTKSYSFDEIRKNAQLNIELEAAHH

For `Cn1ncc(Cl)c1CC1c2ccccc2C(=O)N1C/C=C/c1nn[nH]c1F` (stereo not drawn) [Compound 516, (E)-3-((4-chloro-1-methyl-1H-pyrazol-5-yl)methyl)-2-(3-(5-fluoro-1H-1,2,3-triazol-4-yl)allyl)isoindolin-1-one], the EC50 in assay [1] (setting [3]) and in assay [2] (setting [4]) was less than 0.5 µM throughout. Also, the maximal fold induction in assay [1] (setting [3]) was greater than 1.5. Also, the “Enzymatic Emax” value in assay [2] is reported as “B (3≥B>2)”.

`O=C1c2ccccc2CN1Cc1ccc2[nH]c(=O)oc2c1` [Compound 33, 6-((1-oxoisoindolin-2-yl)methyl)benzo[d]oxazol-2(3H)-one]: the 50% effective concentration (EC50) in assay [1] (setting [5]) was 5 to 50 µM; in assay [2] (setting [6]), no less than 5 µM. Besides, the maximal fold induction in assay [1] (setting [5]) lay within 1.2 to 1.5. Further, the “Enzymatic Emax” value in assay [2] is on record as “A (A>3)”.

As for `O=C1NCC2(CC(CN3C(=O)c4ccccc4C3Cc3nnn(C4CC4)c3Cl)C2)O1` (stereo not drawn) [Compound 471, 2-((1-((5-chloro-1-cyclopropyl-1H-1,2,3-triazol-4-yl)methyl)-3-oxoisoindolin-2-yl)methyl)-5-oxa-7-azaspiro[3.4]octan-6-one], in assay [1] (setting [3]), the EC50 was less than 0.5 µM and the maximal fold induction was greater than 1.5. The EC50 in assay [2] (setting [4]) was 0.5 to 5 µM. Further, the “Enzymatic Emax” value in assay [2] is “B (3≥B>2)”.

Take `CCOc1ccccc1CC1c2ccccc2C(=O)N1Cc1ccc2[nH]c(=O)oc2c1` (stereo not drawn) [Compound 166, 6-((1-(2-ethoxybenzyl)-3-oxoisoindolin-2-yl)methyl)benzo[d]oxazol-2(3H)-one]: the EC50 in assay [1] (setting [5]) and in assay [2] (setting [6]) was 0.5 to 5 µM each time. In addition, the maximal fold induction in assay [1] (setting [5]) lay within 1.2 to 1.5. In assay [2], the “Enzymatic Emax” value is “B (3≥B>2)”.

Regarding `COC(=O)Nc1ccc(CN2Cc3ccccc3C2=O)cc1` [Compound 294, methyl (4-((1-oxoisoindolin-2-yl)methyl)phenyl)carbamate], in assay [1] (setting [5]), the half-maximal effective concentration (EC50) fell in the range of 5 to 50 µM and the maximal fold induction was greater than 1.5. Further, the half-maximal effective concentration (EC50) in assay [2] (setting [6]) was no less than 5 µM. For the same molecule, the “Enzymatic Emax” value in assay [2] is listed as “C (2≥C)”.

With `Cn1nc(C#N)c(CC2c3ccccc3C(=O)N2Cc2ccc3[nH]nnc3c2)c1Cl` (stereo not drawn) [Compound 352, 4-((2-((1H-benzo[d][1,2,3]triazol-5-yl)methyl)-3-oxoisoindolin-1-yl)methyl)-5-chloro-1-methyl-1H-pyrazole-3-carbonitrile], in assay [1] (setting [3]), the EC50 is less than 0.5 µM and the maximal fold induction was greater than 1.5. Besides, in assay [2] (setting [4]), the EC50 is less than 0.5 µM. The “Enzymatic Emax” value in assay [2] is listed as “A (A>3)”.

Consider `COc1ccc(CN2C(=O)c3ccccc3C2Cc2c(Cl)cnn2C)cc1Cl` (stereo not drawn) [Compound 544, 3-((4-chloro-1-methyl-1H-pyrazol-5-yl)methyl)-2-(3-chloro-4-methoxybenzyl)isoindolin-1-one], for which, in assay [1] (setting [3]), the EC50 fell in the range of 0.5 to 5 µM and the maximal fold induction fell in the range of 1.2 to 1.5. The concentration giving a half-maximal response (EC50) in assay [2] (setting [4]) lay in the range of 0.5 to 5 µM. Also, in assay [2], the “Enzymatic Emax” value is on record as “C (2≥C)”.

On to `Cc1ccc2c(c1)C(Cc1c(Cl)cnn1C)N(CC1CC3(CNC(=O)O3)C1)C2=O` (stereo not drawn) [Compound 485, 2-((3-((4-chloro-1-methyl-1H-pyrazol-5-yl)methyl)-5-methyl-1-oxoisoindolin-2-yl)methyl)-5-oxa-7-azaspiro[3.4]octan-6-one], for which the EC50 was less than 0.5 µM in assay [1] (setting [3]) and 0.5 to 5 µM in assay [2] (setting [4]). Also, in assay [1] (setting [3]), the maximal fold induction was greater than 1.5. In addition, in assay [2], the “Enzymatic Emax” value is reported as “B (3≥B>2)”.

With `O=C1c2ccc(C3CC3)cc2C(Cc2ncccc2Br)N1Cc1ccc2[nH]c(=O)oc2c1` (stereo not drawn) [Compound 209, 6-((3-((3-bromopyridin-2-yl)methyl)-5-cyclopropyl-1-oxoisoindolin-2-yl)methyl)benzo[d]oxazol-2(3H)-one], in assay [1] (setting [5]), the EC50 is less than 0.5 µM and the maximal fold induction is greater than 1.5. The concentration giving a half-maximal response (EC50) in assay [2] (setting [6]) is less than 0.5 µM. In assay [2], the “Enzymatic Emax” value is recorded as “A (A>3)”.

The record behind these values is patent US20260078130A1, “NAMPT MODULATORS, PREPARATIONS, AND USES THEREOF” (SIRONAX LTD., priority 2022, published 2026).
